US6916446B1, “Bioreactor method, apparatus and product thereby” (The United States of America as represented by the …, priority 2002, dated 2005)
Where “and” joins values, the source holds several entries; their conditions need not be identical. Identical values can stand only once. Like-named read-outs stand apart in the source and are kept apart here.

What was measured:
[1] = tested on: strain IMB-1; test: Batch oxidation of MeBr in bottles containing cell suspensions of strain IMB-1; assay type: cell-based, strain IMB-1 (ATCC 202197); parameters: MeBr Oxidation Rate per Cell: unit not given here; settings: for CO2 Production Rate: corrected for respiration
[2] = tested on: strain IMB-1; test: Open-system bioreactor, 10 L growing culture, continuous supply of MeBr; assay type: cell-based, strain IMB-1 (ATCC 202197); settings: in 15 days; 21.2 g/m^3 MeBr in air, 10 L culture
Description: The bioreactor may be designed to maximize the rate of oxidation of methyl bromide, particularly when using strain IMB-1. For example, without limitation, a twelve (12)-liter fermenter may be used to grow 10-L of cells of IMB-1 in batch culture for flow-through. Preferably, the fermenter is used in continuous-flow mode to grow IMB-1 using 21.2 g/m^3 MeBr as the feedstock. Use of strain 1 IMB-1 in a bioreactor is used in the present invention to directly oxidize various concentrations of the methyl halide, preferably methyl bromide or methyl iodide, for example without limitation high concentrations of approximately 30,000 ppm or 125 g/m^3. Direct oxidation of methyl bromide is most preferred.
A closed-system bioreactor was built using the general design of FIG. 1 and employed for testing on a laboratory bench. The bioreactor was started with 0.5 L of growing culture of methylotrophic bacteria strain IMB-1 and removed MeBr at fumigation concentrations (>17 g/m^3) from re-circulating air. Strain IMB-1 grew to high cell densities (5×10^9 cells/cm^3) in the bioreactor within several days using pulsed additions of MeBr as the sole carbon and energy source. The addition of the MeBr was done as a gas. Bacterial oxidation of MeBr produced CO2 and hydrobromic acid (HBr) which could be neutralized by addition of NaOH. […]

[3] = tested on: strain IMB-1; test: Growth of strain IMB-1 on substrates in mineral salts medium (Balch tubes); settings: substrate as electron donor / carbon and energy source
[4] = tested on: strain IMB-1; test: Closed-system re-circulating bioreactor with washed cell suspension of strain IMB-1; assay type: cell-based, strain IMB-1 (ATCC 202197)
Experimental: Procedures for forming the methylotrophic bacterium 18 within the bioreactor 10 include, for example and without limitation, strain IMB-1 being grown aerobically in batch mode using pulsed additions of MeBr for use as an inoculum for the bioreactor. Additions of MeBr from about 0.01 to about 0.1 g were made approximately daily for several weeks. Cells (1 L) were grown to elevated density (approximately 1.5×10^8 cells/cm^3) in stoppered, 2-L flasks with rotary shaking. Growth occurred in mineral salts media containing mono- and dibasic phosphate (ΣPO4^31 '=1.4 mM) as well as sulfate and trace minerals (see e.g. Schaefer, J. K. and R. S. Oremland, Oxidation of Methyl Halides by the Facultative Methylotroph Strain IMB-1. Appl. Environ. Microbiol. 65 (1999): pp 5035-5041) the disclosure of which is hereby incorporated by reference. Media concentrations were tripled in order to provide additional nutrients and buffer capacity. Cells were grown at about 28° C. Cells were washed and re-suspended to 0.5 L in fresh media and transferred to the gas-washing bottle of the bioreactor having an initial cell density approximately equal to 3×10^8 cells/cm^3. Once the methylotrophic bacterium 18 constitutes part of the biofilter 16, the methyl halide is pumped from the reservoir 14 to the biofilter 16 for direct oxidation.
The biofilter 16 includes a mass of methylotrophic bacteria 18 within a container for bio-degradation of the methyl halides 30. The biofilter 16 constitutes the active surface of the bioreactor 10. The initial cell density was 3×10^8 cells/cm^3. The peristaltic pump 12 was used to circulate the methyl halide 30 gas in this system at a flow rate of 0.2 liter/min through inert rubber tubing (Pharmed), manufactured by Cole Parmer of Vernon Hills, Ill., and having 0.4 cm I.D. Stainless steel tubing (0.4 cm I.D.) was used to connect the components of the bioreactor 10. Methane (CH4) was added (3.2 g/m^3) to serve as a control and an internal standard.
A closed-system bioreactor was built using the general design of FIG. 1 and employed for testing on a laboratory bench. The bioreactor was started with 0.5 L of growing culture of methylotrophic bacteria strain IMB-1 and removed MeBr at fumigation concentrations (>17 g/m^3) from re-circulating air. Strain IMB-1 grew to high cell densities (5×10^9 cells/cm^3) in the bioreactor within several days using pulsed additions of MeBr as the sole carbon and energy source. The addition of the MeBr was done as a gas. Bacterial oxidation of MeBr produced CO2 and hydrobromic acid (HBr) which could be neutralized by addition of NaOH. Strain IMB-1 was capable of sustained oxidation of large amounts of MeBr (16 g in 46 days). […] Oxidation of MeBr was unaffected by the presence of elevated dissolved solutes (>26 g/kg) that approached the salinity of seawater. Strain IMB-1 grown on MeBr was 7 times more efficient at removing MeBr from the headspace of flasks than cultures grown on glucose (55 vs. 8×10^−15 g MeBr/cell/hr, respectively). An open-system bioreactor having 10 L of growing culture used a continuous supply of MeBr (21.2 g/m^3 in air). Growth of strain IMB-1 was continuous and 80 g of MeBr was removed from the air supply in 15 days.

[5] = 0 cells
[6] = tested on: strain IMB-1; test: 14C-MeBr oxidation assay on washed cell suspensions; assay type: cell-based, strain IMB-1 (ATCC 202197); settings: cells grown on the substrate indicated
[7] = 3 × 10^7 cells/cm^3, 0.76 mg MeBr added
[8] = 3 × 10^7 cells/cm^3, 1.36 mg MeBr added
[9] = 3 × 10^7 cells/cm^3, 5.30 mg MeBr added
[10] = 3 × 10^8 cells/cm^3, 0.76 mg MeBr added
[11] = 3 × 10^8 cells/cm^3, 1.36 mg MeBr added
[12] = 3 × 10^8 cells/cm^3, 5.30 mg MeBr added
[13] = 3 × 10^9 cells/cm^3, 0.76 mg MeBr added
[14] = 3 × 10^9 cells/cm^3, 1.36 mg MeBr added
[15] = 3 × 10^9 cells/cm^3, 5.30 mg MeBr added

SMILES: CBr [MeBr, methyl bromide]
- time to removal of MeBr ([1]; 0.76 mg (1.2 mM in the liquid), bottles containing 1.5×10^8 cells): ≤ 190 h
- time to removal of MeBr ([1]; 0.76 mg, bottles containing 10-fold more cells): ≤ 35 h
- time to removal of MeBr ([1]; 0.76 mg, bottles containing 100-fold more cells (3×10^9 cells/cm^3)): ≤ 2 h
- time to oxidation of MeBr ([1]; 1.2 mM in the liquid, cells grown on MeBr (2.8×10^8 cells)): within one hour
- time to remove a similar amount of MeBr ([1]; 1.2 mM in the liquid, glucose-grown cells (3.6×10^8 cells)): greater than 5 hours
- time to removal of MeBr ([1]; 1.36 mg MeBr, 3×10^9 cells/cm^3): ≤ 7 h
- MeBr Oxidation Rate [1, 7]: 0.063 mg/day
- MeBr Oxidation Rate Constant [1, 7]: 0.083 per d
- MeBr Oxidation Rate per Cell [1, 7]: 4.1 ×10^10
- CO2 Production Rate [1, 7]: 0.031 mg/day
- MeBr Oxidation Rate [1, 8]: 0 mg/day
- MeBr Oxidation Rate Constant [1, 8]: 0 per d
- MeBr Oxidation Rate per Cell [1, 8]: 0 ×10^10
- CO2 Production Rate [1, 8]: 0.002 mg/day
- MeBr Oxidation Rate [1, 9]: 0 mg/day
- MeBr Oxidation Rate Constant [1, 9]: 0 per d
- MeBr Oxidation Rate per Cell [1, 9]: 0 ×10^10
- CO2 Production Rate [1, 9]: 0 mg/day
- MeBr Oxidation Rate [1, 10]: 0.555 mg/day
- MeBr Oxidation Rate Constant [1, 10]: 0.73 per d
- MeBr Oxidation Rate per Cell [1, 10]: 3.7 ×10^10
- CO2 Production Rate [1, 10]: 0.224 mg/day
- MeBr Oxidation Rate [1, 11]: 0.180 mg/day
- MeBr Oxidation Rate Constant [1, 11]: 0.13 per d
- MeBr Oxidation Rate per Cell [1, 11]: 1.2 ×10^10
- CO2 Production Rate [1, 11]: 0.189 mg/day
- MeBr Oxidation Rate [1, 12]: 0 mg/day
- MeBr Oxidation Rate Constant [1, 12]: 0 per d
- MeBr Oxidation Rate per Cell [1, 12]: 0 ×10^10
- CO2 Production Rate [1, 12]: 0 mg/day
- MeBr Oxidation Rate [1, 13]: 6.53 mg/day
- MeBr Oxidation Rate Constant [1, 13]: 8.6 per d
- MeBr Oxidation Rate per Cell [1, 13]: 4.4 ×10^10
- CO2 Production Rate [1, 13]: 5.025 mg/day
- MeBr Oxidation Rate [1, 14]: 3.52 mg/day
- MeBr Oxidation Rate Constant [1, 14]: 2.59 per d
- MeBr Oxidation Rate per Cell [1, 14]: 2.3 ×10^10
- CO2 Production Rate [1, 14]: 1.990 mg/day
- MeBr Oxidation Rate [1, 15]: 6.07 mg/day
- MeBr Oxidation Rate Constant [1, 15]: 1.14 per d
- MeBr Oxidation Rate per Cell [1, 15]: 4.0 ×10^10
- CO2 Production Rate [1, 15]: 2.696 mg/day
- MeBr removal from the headspace of flasks per cell ([1]; cultures grown on glucose): 8 ×10^−15 g MeBr/cell/hr
- MeBr removal from the headspace of flasks per cell ([1]; strain IMB-1 grown on MeBr): 55 ×10^−15 g MeBr/cell/hr
- amount of MeBr removed from the air supply [2]: 80 g
- growth of strain IMB-1 on the substrate (in words) [3]: grow using MeBr as a sole source of carbon and energy
- time to consumption of added MeBr ([4]; 0.21 g added MeBr, by the third day of operation): ≤ 4 h
- reduction of methyl bromide concentration during a single pass through the filter ([4]; after 2 weeks operation): up to 5 g/m^3
- time to removal of all added MeBr ([4]; after several equivalent additions of 9 g/m^3 MeBr): approximately 6 hours
- time to removal of added MeBr ([4]; first addition of 0.21 g MeBr): 24 h
- amount of MeBr oxidized ([4]; in 46 days, pulses of 0.21 g up to three times a day): 16 g and 16.2 g
- time to oxidation of initial levels of methyl bromide ([4]; initial 9 g/m^3, washed cell suspensions): ≤ 24 h
- CO2 Production Rate ([5]; 0.76 mg MeBr added): 0 mg/day
- MeBr Oxidation Rate ([5]; 0.76 mg MeBr added): 0.029 mg/day
- CO2 Production Rate ([5]; 1.36 mg MeBr added): 0 mg/day
- MeBr Oxidation Rate ([5]; 1.36 mg MeBr added): 0.062 mg/day
- CO2 Production Rate ([5]; 5.30 mg MeBr added): 0 mg/day
- MeBr Oxidation Rate ([5]; 5.30 mg MeBr added): 0.208 mg/day
- MeBr oxidized [6]: 1.4 pmol/10^6 cells/h
